# Data: patent US7709004B2, “Method of producing an HIV-1 immune response” (Bionor Immuno AS, priority 1999, dated 2010)
# Bridge positions count the residues as written; N and C are the ends. Ends that are not written are not given here. I, II: the chains in the order shown.
# Test system: NMFI female mice
# Experiment: toxicity of the dipeptide by injection to mice
# Type: in vivo
# Conditions: 100 μg per kg bodyweight, test solution 4 mg/ml in 0.9% NaCl
# Method: The dipeptide of Example 13 was diluted in 0.9% NaCl) to a test solution concentration of 4 mg/ml. The peptide was administered by injection to NMFI female mice in a dose of 100 μg per kg bodyweight.
substance,measurement,value
I: WIIPGLNPLVGGGKLYSPTSILCG-NH2 / II: KALGPGATLQTPWTACQGVG-NH2 (disulfide I:23-II:16) [Example 13],toxicological effects,No toxicological effects were observed
